Publication PMC7373191, “Escherichia coli K-12 Lacks a High-Affinity Assimilatory Cysteine Importer” (mBio, 2020)
Values belong to the molecule of their own block, whether it stands above or below them.

Key:
Type in all cases: cell-based, Escherichia coli
(UniProt P04816+P0AD96) [1] = biological target: T1, (UniProt P04816+P0AD96); experiment: inhibition of […]leucine uptake into whole cells, filtration; conditions: read-out: 50% inhibition
T1 construct: gene livJ; native chromosomal ABC importer in whole cells; other candidate importers deleted
T1 sequence (P22731 whole entry, one chain of several): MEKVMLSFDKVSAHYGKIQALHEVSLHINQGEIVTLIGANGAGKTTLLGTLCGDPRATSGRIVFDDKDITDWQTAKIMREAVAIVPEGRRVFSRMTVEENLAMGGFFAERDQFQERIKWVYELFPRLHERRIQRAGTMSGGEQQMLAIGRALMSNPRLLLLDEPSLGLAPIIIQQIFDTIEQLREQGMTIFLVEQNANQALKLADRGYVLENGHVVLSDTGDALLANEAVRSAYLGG
T1 sequence (P0AEX7 whole entry, one chain of several, further chain): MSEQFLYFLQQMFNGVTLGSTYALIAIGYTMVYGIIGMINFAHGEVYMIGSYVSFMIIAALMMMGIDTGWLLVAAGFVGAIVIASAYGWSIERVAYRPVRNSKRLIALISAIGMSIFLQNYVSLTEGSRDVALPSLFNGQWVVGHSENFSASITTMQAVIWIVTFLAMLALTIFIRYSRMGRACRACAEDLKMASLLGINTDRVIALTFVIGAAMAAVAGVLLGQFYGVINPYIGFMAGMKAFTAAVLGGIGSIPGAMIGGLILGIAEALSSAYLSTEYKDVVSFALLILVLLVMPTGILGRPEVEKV
T1 sequence (P22729 whole entry, one chain of several, further chain): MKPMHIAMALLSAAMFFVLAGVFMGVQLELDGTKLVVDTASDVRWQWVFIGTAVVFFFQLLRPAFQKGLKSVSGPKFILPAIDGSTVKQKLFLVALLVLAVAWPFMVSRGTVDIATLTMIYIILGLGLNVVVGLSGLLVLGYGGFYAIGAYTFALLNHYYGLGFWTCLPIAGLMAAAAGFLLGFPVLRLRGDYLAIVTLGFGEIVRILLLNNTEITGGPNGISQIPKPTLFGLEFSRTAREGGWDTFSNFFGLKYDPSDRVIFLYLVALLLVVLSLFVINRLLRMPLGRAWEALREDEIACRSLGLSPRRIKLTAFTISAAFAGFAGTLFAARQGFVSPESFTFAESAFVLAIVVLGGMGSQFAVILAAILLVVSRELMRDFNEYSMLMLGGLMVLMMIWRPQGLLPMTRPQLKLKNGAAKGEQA
T1 sequence (P0A9S7 whole entry, one chain of several, further chain): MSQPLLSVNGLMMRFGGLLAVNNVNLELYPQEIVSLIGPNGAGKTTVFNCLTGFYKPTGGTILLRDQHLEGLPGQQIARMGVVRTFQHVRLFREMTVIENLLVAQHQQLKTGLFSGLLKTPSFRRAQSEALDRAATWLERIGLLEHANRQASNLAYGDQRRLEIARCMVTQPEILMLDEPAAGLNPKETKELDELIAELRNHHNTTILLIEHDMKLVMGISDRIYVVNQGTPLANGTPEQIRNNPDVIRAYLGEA

(UniProt P04816+P0AD96) [2] = biological target: T1, (UniProt P04816+P0AD96); experiment: inhibition of […]cysteine uptake into whole cells, filtration; conditions: read-out: 50% inhibition
[3] = substrate: N[C@@H](CS)C(=O)O; experiment: cells, lysate or membranes; conditions: strain ZYD214, no other amino acids, 93-s time point, 37 °C, minimal glucose medium pH 7.0, DTPA and chloramphenicol, labelled compound

IC50 ((UniProt P04816+P0AD96) [1]): ~400 µM
Molecule: N[C@@H](CS)C(=O)O [cysteine]

IC50 ((UniProt P04816+P0AD96) [2]): ~2 µM
Molecule: CC(C)C[C@H](N)C(=O)O [leucine]

B1: LIV system (LivJ/LivKHMGF) (Escherichia coli K-12) (protein)
chain 1: EDIKVAVVGAMSGPVAQYGDQEFTGAEQAVADINAKGGIKGNKLQIVKYDDACDPKQAVAVANKVVNDGIKYVIGHLCSSSTQPASDIYEDEGILMITPAATAPELTARGYQLILRTTGLDSDQGPTAAKYILEKVKPQRIAIVHDKQQYGEGLARAVQDGLKKGNANVVFFDGITAGEKDFSTLVARLKKENIDFVYYGGYHPEMGQILRQARAAGLKTQFMGPEGVANVSLSNIAGESAEGLLVTKPKNYDQVPANKPIVDAIKAKKQDPSGAFVWTTYAALQSLQAGLNQSDDPAEIAKYLKANSVDTVMGPLTWDEKGDLKGFEFGVFDWHANGTATDAK
chain 2: DDIKVAVVGAMSGPIAQWGDMEFNGARQAIKDINAKGGIKGDKLVGVEYDDACDPKQAVAVANKIVNDGIKYVIGHLCSSSTQPASDIYEDEGILMISPGATNPELTQRGYQHIMRTAGLDSSQGPTAAKYILETVKPQRIAIIHDKQQYGEGLARSVQDGLKAANANVVFFDGITAGEKDFSALIARLKKENIDFVYYGGYYPEMGQMLRQARSVGLKTQFMGPEGVGNASLSNIAGDAAEGMLVTMPKRYDQDPANQGIVDALKADKKDPSGPYVWITYAAVQSLATALERTGSDEPLALVKDLKANGANTVIGPLNWDEKGDLKGFDFGVFQWHADGSSTAAK
notes: native chromosomal ABC importer in whole cells; other candidate importers deleted
Km [3]: 20 µM
